Reference: patent publication US8937041B2, “Macrocyclic hepatitis C serine protease inhibitors” (AbbVie, Inc., priority 2010, dated 2015)

Columns and labels:
[1] = target: recombinant HCV NS3 protease, genotype 1a (Hepatitis C virus genotype 1a, UniProt P27958); test: biochemical; conditions: genotype 1a NS3 protease; read-out: IC50 in a 1a enzyme assay
[2] = target: recombinant HCV NS3 protease, genotype 1b (Hepatitis C virus genotype 1b, UniProt Q9WMX2); test: biochemical; conditions: genotype 1b NS3 protease; read-out: IC50 in a 1b enzyme assay
Chain of recombinant HCV NS3 protease, genotype 1b (Q9WMX2 1027-1657, other chains not shown): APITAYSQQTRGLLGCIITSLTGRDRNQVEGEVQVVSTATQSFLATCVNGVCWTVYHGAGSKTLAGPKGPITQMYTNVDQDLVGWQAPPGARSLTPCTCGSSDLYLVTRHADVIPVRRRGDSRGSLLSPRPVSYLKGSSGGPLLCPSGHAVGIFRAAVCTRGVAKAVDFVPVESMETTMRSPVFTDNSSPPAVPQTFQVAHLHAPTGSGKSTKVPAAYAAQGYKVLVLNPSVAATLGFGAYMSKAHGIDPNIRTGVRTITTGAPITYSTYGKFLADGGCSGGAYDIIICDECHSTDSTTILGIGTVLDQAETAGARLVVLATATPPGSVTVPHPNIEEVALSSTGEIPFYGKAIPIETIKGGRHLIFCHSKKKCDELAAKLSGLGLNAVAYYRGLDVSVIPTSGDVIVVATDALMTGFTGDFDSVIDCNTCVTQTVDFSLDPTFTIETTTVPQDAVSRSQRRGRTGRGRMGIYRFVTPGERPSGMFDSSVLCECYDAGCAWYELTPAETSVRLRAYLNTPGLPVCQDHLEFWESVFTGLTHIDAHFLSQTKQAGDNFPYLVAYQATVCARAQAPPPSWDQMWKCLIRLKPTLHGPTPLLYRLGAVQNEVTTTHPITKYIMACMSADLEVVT

HLM stability = type: in vitro ADME
[3] = test system: HCV genotype 1a replicon (1a-H77); test: microbe, parasite or virus in culture; type: cell-based; conditions: Hepatitis C virus, read-out: EC50 in a replicon cell line assay in a 1a-H77 background
[4] = test system: HCV genotype 1b replicon (1b-Con-1); test: microbe, parasite or virus in culture; type: cell-based; conditions: Hepatitis C virus, read-out: EC50 in a replicon cell line assay in a 1b-con1 background

Chain of recombinant HCV NS3 protease, genotype 1a (P27958 1027-1657, other chains not shown): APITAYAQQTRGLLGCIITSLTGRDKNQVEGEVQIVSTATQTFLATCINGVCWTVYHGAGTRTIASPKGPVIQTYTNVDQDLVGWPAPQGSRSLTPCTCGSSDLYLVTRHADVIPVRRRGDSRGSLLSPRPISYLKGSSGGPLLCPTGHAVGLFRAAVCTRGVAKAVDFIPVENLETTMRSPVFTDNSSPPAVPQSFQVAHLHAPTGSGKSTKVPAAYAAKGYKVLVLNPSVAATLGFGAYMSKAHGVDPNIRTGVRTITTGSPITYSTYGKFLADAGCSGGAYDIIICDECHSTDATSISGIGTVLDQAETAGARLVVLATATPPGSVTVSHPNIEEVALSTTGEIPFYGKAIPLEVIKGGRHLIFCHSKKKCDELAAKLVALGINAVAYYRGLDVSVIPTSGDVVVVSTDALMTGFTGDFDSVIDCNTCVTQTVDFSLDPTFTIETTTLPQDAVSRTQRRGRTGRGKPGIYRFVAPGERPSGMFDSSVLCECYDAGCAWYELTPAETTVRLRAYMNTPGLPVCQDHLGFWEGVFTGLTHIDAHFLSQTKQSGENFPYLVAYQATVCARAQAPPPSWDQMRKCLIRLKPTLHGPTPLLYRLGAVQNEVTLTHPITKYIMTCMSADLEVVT

| SMILES | IC50 [1] | IC50 [2] | HLM stability value (HLM stability) | EC50 [3] | EC50 [4] |
| --- | --- | --- | --- | --- | --- |
| CC(C)(C)OC(=O)N[C@H]1CCCCCC(F)(F)C[C@@H]2C[C@@]2(C(=O)NS(=O)(=O)C2CC2)NC(=O)[C@@H]2C[C@@H](Oc3cnc4ccccc4n3)CN2C1=O [Example 1, tert-butyl(2R,6S,13aS,14aR,16aS)-14a-(cyclopropylsulfonylcarbamoyl)-12,12-difluoro-5,16-dioxo-2-(quinoxalin-2-yloxy)octadecahydrocyclopropa[e]pyrrolo[1,2-a][1,4]diazacyclopentadecin-6-ylcarbamate] | > 1 nM | > 1 nM | 50 to 100 µL/min/mg | – | – |
| Cc1cc(C(=O)N[C@H]2CCCCCC(F)(F)C[C@@H]3C[C@@]3(C(=O)NS(=O)(=O)C3CC3)NC(=O)[C@@H]3C[C@@H](Oc4cnc5ccccc5n4)CN3C2=O)no1 [Example 2, N-((2R,6S,13aS,14aR,16aS)-14a-(cyclopropylsulfonylcarbamoyl)-12,12-difluoro-5,16-dioxo-2-(quinoxalin-2-yloxy)octadecahydrocyclopropa[e]pyrrolo[1,2-a][1,4]diazacyclopentadecin-6-yl)-5-methylisoxazole-3-carboxamide] | – | – | < 50 µL/min/mg | – | – |
| Cc1nc2ccccc2nc1O[C@@H]1C[C@H]2C(=O)N[C@]3(C(=O)NS(=O)(=O)C4CC4)C[C@H]3CC(F)(F)CCCCC[C@H](NC(=O)OC(C)(C)C)C(=O)N2C1 [Example 3, tert-butyl (2R,6S,13aS,14aR,16aS)-14a-(cyclopropylsulfonylcarbamoyl)-12,12-difluoro-2-(3-methylquinoxalin-2-yloxy)-5,16-dioxooctadecahydrocyclopropa[e]pyrrolo[1,2-a][1,4]diazacyclopentadecin-6-ylcarbamate] | 0.1 to 0.5 nM | 0.1 to 0.5 nM | – | – | – |
| Cc1cc(C(=O)N[C@H]2CCCCCC(F)(F)C[C@@H]3C[C@@]3(C(=O)NS(=O)(=O)C3CC3)NC(=O)[C@@H]3C[C@@H](Oc4nc5ccccc5nc4C)CN3C2=O)no1 [Example 4, N-((2R,6S,13aS,14aR,16aS)-14a-(cyclopropylsulfonylcarbamoyl)-12,12-difluoro-2-(3-methylquinoxalin-2-yloxy)-5,16-dioxooctadecahydrocyclopropa[e]pyrrolo[1,2-a][1,4]diazacyclopentadecin-6-yl)-5-methylisoxazole-3-carboxamide] | – | – | < 50 µL/min/mg | – | – |
| CC(C)(C)OC(=O)N[C@H]1CCCCCC(F)(F)C[C@@H]2C[C@@]2(C(=O)NS(=O)(=O)C2CC2)NC(=O)[C@@H]2C[C@@H](Oc3nc4ccccc4nc3-c3ccccc3)CN2C1=O [Example 5, tert-butyl (2R,6S ,13aS,14aR,16aS)-14a-(cyclopropylsulfonylcarbamoyl)-12,12-difluoro-5,16-dioxo-2-(3-phenylquinoxalin-2-yloxy)octadecahydrocyclopropa[e]pyrrolo[1,2-a][1,4]diazacyclopentadecin-6-ylcarbamate] | 0.5 to 1 nM | 0.5 to 1 nM | – | – | – |
| Cc1cc(C(=O)N[C@H]2CCCCCC(F)(F)C[C@@H]3C[C@@]3(C(=O)NS(=O)(=O)C3CC3)NC(=O)[C@@H]3C[C@@H](Oc4nc5ccccc5nc4-c4ccccc4)CN3C2=O)no1 [Example 6, N-((2R,6S,13aS,14aR,16aS)-14a-(cyclopropylsulfonylcarbamoyl)-12,12-difluoro-5,16-dioxo-2-(3-phenylquinoxalin-2-yloxy)octadecahydrocyclopropa[e]pyrrolo[1,2-a][1,4]diazacyclopentadecin-6-yl)-5-methylisoxazole-3-carboxamide] | – | – | < 50 µL/min/mg | – | – |
| CCc1nc2ccccc2nc1O[C@@H]1C[C@H]2C(=O)N[C@]3(C(=O)NS(=O)(=O)C4CC4)C[C@H]3CC(F)(F)CCCCC[C@H](NC(=O)OC(C)(C)C)C(=O)N2C1 [Example 7, tert-butyl (2R,6S,13aS,14aR,16aS)-14a-(cyclopropylsulfonylcarbamoyl)-2-(3-ethylquinoxalin-2-yloxy)-12,12-difluoro-5,16-dioxooctadecahydrocyclopropa[e]pyrrolo [1,2-a][1,4]diazacyclopentadecin-6-ylcarbamate] | 0.5 to 1 nM | 0.1 to 0.5 nM | > 100 µL/min/mg | 2 to 5 nM | 1 to 2 nM |
| CCc1nc2ccccc2nc1O[C@@H]1C[C@H]2C(=O)N[C@]3(C(=O)NS(=O)(=O)C4(C)CC4)C[C@H]3CC(F)(F)CCCCC[C@H](NC(=O)OC(C)(C)C)C(=O)N2C1 [Example 8, tert-butyl (2R,6S ,13aS,14aR,16aS)-2-(3-ethylquinoxalin-2-yloxy)-12,12-difluoro-14a-(1-methylcyclopropylsulfonylcarbamoyl)-5,16-dioxooctadecahydrocyclopropa[e]pyrrolo[1,2-a][1,4]diazacyclopentadecin-6-ylcarbamate] | 0.1 to 0.5 nM | 0.1 to 0.5 nM | > 100 µL/min/mg | 2 to 5 nM | 1 to 2 nM |
| CCc1nc2ccccc2nc1O[C@@H]1C[C@H]2C(=O)N[C@]3(C(=O)NS(=O)(=O)C4CC4)C[C@H]3CC(F)(F)CCCCC[C@H](NC(=O)c3cc(C)on3)C(=O)N2C1 [Example 9, N-((2R,6S ,13aS,14aR,16aS)-14a-(cyclopropylsulfonylcarbamoyl)-2-(3-ethylquinoxalin-2-yloxy)-12,12-difluoro-5,16-dioxooctadecahydrocyclopropa[e]pyrrolo[1,2-a][1,4]diazacyclopentadecin-6-yl)-5-methylisoxazole-3-carboxamide] | 0.5 to 1 nM | 0.1 to 0.5 nM | < 50 µL/min/mg | 2 to 5 nM | 1 to 2 nM |
| CCc1nc2ccccc2nc1O[C@@H]1C[C@H]2C(=O)N[C@]3(C(=O)NS(=O)(=O)C4(C)CC4)C[C@H]3CC(F)(F)CCCCC[C@H](NC(=O)c3cc(C)on3)C(=O)N2C1 [Example 10, N-((2R,6S,13aS,14aR,16aS)-2-(3-ethylquinoxalin-2-yloxy)-12,12-difluoro-14a-(1-methylcyclopropylsulfonylcarbamoyl)-5,16-dioxooctadecahydrocyclopropa[e]pyrrolo [1,2-a][1,4]diazacyclopentadecin-6-yl)-5-methylisoxazole-3-carboxamide] | – | – | < 50 µL/min/mg | 2 to 5 nM | 1 to 2 nM |
| CCc1nc2ccccc2nc1O[C@@H]1C[C@H]2C(=O)N[C@]3(C(=O)NS(=O)(=O)C4CC4)C[C@H]3CC(F)(F)CCCCC[C@H](NC(=O)c3ccon3)C(=O)N2C1 [Example 11, N-((2R,6S ,13aS,14aR,16aS)-14a-(cyclopropylsulfonylcarbamoyl)-2-(3-ethylquinoxalin-2-yloxy)-12,12-difluoro-5,16-dioxooctadecahydrocyclopropa[e]pyrrolo[1,2-a][1,4]diazacyclopentadecin-6-yl)isoxazole-3-carboxamide] | 0.1 to 0.5 nM | 0.1 to 0.5 nM | < 50 µL/min/mg | > 5 nM | 2 to 5 nM |
| Cc1cc(C(=O)N[C@H]2CCCCCC(F)(F)C[C@@H]3C[C@@]3(C(=O)NS(=O)(=O)C3CC3)NC(=O)[C@@H]3C[C@@H](Oc4nc5ccccc5nc4-c4cc5ccccc5o4)CN3C2=O)no1 [Example 16, N-((2R,6S,13aS,14aR,16aS)-2-(3-(benzofuran-2-yl)quinoxaline-2-yloxy)-14a-(cyclopropylsulfonylcarbamoyl)-12,12-difluoro-5,16-dioxooctadecahydrocyclopropa[e]pyrrolo[1,2-a][1,4]diazacyclopentadecin-6-yl)-5-methylisoxazole-3-carboxamide] | 0.1 to 0.5 nM | 0.1 to 0.5 nM | – | – | – |
| Cn1ccc(C(=O)N[C@H]2CCCCCC(F)(F)C[C@@H]3C[C@@]3(C(=O)NS(=O)(=O)C3CC3)NC(=O)[C@@H]3C[C@@H](Oc4nc5ccccc5nc4-c4cc5ccccc5o4)CN3C2=O)n1 [Example 17, (2R,6S,13aS,14aR,16aS)-2-(3-(benzofuran-2-yl)quinoxaline-2-yloxy)-N-(cyclopropylsulfonyl)-12,12-difluoro-6-(1-methyl-1H-pyrazole-3-carboxamido)-5,16-dioxooctadecahydrocyclopropa[e]pyrrolo [1,2-a][1,4]diazacyclopentadecine-14a-carboxamide] | 0.1 to 0.5 nM | < 0.1 nM | < 50 µL/min/mg | – | – |
| Cc1cc(C(=O)N[C@H]2CCCCCC(F)(F)C[C@@H]3C[C@@]3(C(=O)NS(=O)(=O)C3CC3)NC(=O)[C@@H]3C[C@@H](Oc4nc5ccccc5c5ccccc45)CN3C2=O)no1 [Example 18, N-((2R,6S,13aS,14aR,16aS)-14a-(cyclopropylsulfonylcarbamoyl)-12,12-difluoro-5,16-dioxo-2-(phenanthridin-6-yloxy)octadecahydrocyclopropa[e]pyrrolo[1,2-a][1,4]diazacyclopentadecin-6-yl)-5-methylisoxazole-3-carboxamide] | – | – | – | < 1 nM | < 1 nM |
| Cc1cnc(C(=O)N[C@H]2CCCCCC(F)(F)C[C@@H]3C[C@@]3(C(=O)NS(=O)(=O)C3CC3)NC(=O)[C@@H]3C[C@@H](Oc4nc5ccccc5c5ccccc45)CN3C2=O)cn1 [Example 20, (2R,6S,13aS,14aR,16aS)-N-(cyclopropylsulfonyl)-12,12-difluoro-6-(5-methylpyrazine-2-carboxamido)-5,16-dioxo-2-(phenanthridin-6-yloxy)octadecahydrocyclopropa[e]pyrrolo[1,2-a][1,4]diazacyclopentadecine-14a-carboxamide] | – | – | < 50 µL/min/mg | – | – |
| Cc1cc(C(=O)N[C@H]2CCCCCC(F)(F)C[C@@H]3C[C@@]3(C(=O)NS(=O)(=O)C3CC3)NC(=O)[C@@H]3C[C@@H](Oc4nc5ccccc5c5ccccc45)CN3C2=O)nn1C [Example 21, (2R,6S,13aS,14aR,16a5)-N-(cyclopropylsulfonyl)-6-(1,5-dimethyl-1H-pyrazole-3-carboxamido)-12,12-difluoro-5,16-dioxo-2-(phenanthridin-6-yloxy)octadecahydrocyclopropa[e]pyrrolo[1,2-a][1,4]diazacyclopentadecine-14a-carboxamide] | – | – | < 50 µL/min/mg | – | – |
